From US20250340537A1, “PHARMACEUTICALLY ACTIVE COMPOUNDS, COMPOSITIONS, AND METHODS FOR MODULATING PENDRIN” (ARBORMED Co., Ltd., priority 2022, published 2025)

These compounds were tested against T1, H723R-pendrin (Homo sapiens, UniProt O43511, H723R) (assay: YFP fluorescence quenching assay (Cl−/I− exchange activity of pendrin)). Conditions: PANC-1 cells stably expressing human H723R-pendrin and YFP-F46L/H148Q/I152L; compound incubation 20-24 hours; iodide influx.
T1 construct: expressed in transfected cells; host or cells: PANC-1
T1 sequence (O43511 1-780 H723R): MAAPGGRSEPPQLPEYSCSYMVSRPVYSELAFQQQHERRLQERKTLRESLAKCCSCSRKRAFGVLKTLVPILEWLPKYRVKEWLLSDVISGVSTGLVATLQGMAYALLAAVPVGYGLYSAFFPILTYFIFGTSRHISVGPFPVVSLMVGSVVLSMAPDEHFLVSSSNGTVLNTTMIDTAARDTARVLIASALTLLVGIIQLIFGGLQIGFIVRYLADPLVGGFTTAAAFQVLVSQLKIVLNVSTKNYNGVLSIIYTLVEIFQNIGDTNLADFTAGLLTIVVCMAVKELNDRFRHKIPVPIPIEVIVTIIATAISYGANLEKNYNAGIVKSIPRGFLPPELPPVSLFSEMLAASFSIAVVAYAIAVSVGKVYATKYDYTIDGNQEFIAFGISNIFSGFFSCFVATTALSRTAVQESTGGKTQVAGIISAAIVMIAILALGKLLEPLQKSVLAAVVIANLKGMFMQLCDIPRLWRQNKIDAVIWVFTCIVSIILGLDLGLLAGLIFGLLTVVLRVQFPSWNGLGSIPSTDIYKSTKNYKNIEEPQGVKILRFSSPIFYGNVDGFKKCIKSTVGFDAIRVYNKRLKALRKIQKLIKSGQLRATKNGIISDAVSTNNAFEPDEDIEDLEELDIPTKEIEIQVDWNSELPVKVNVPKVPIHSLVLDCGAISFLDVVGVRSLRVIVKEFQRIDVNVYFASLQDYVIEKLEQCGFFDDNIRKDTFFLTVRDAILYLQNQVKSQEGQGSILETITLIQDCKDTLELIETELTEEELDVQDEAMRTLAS
Type: cell-based
Description: Halide sensor YFP F46L/H148Q/I152L is quenched by halide ion like Iodide. When such YFP is expressed in a cell, it expresses in the cytoplasm.
To measure H723R-PDS activity, PANC-1 cells were stably transfected with halide sensors YFP-F46L/H148Q/I152L and H723R-PDS which has problems with membrane trafficking due to misfolding.
If the cell-treated drug is a corrector for H723R-PDS, H723R-PDS will translocate normally to the plasma membrane.
At this time, when treated with a high-concentration iodide solution outside the cell, iodide enters the cell due to the Cl−/I− exchange activity of pendrin, and the fluorescence of the halide sensor YFP decreases.
PANC-1 cells were cultured in Dulbecco's Modified Eagle's Medium with 10% fetal bovine serum, 2 mM glutamine, 100 units/ml penicillin and 100 µg/ml streptomycin. For high-throughput screening, PANC-1 cells were stably transfected with human H723R-pendrin and halide sensor YFP-F46L/H148Q/I152L.
PANC-1 cells expressing human H723R-pendrin and YFP-F46L/H148Q/I152L were plated in 96-well microplates at a density of 2×10^4 cells per well and grown for 20-24 hours at 37° C. (90% humidity 5% CO2). Then these cells were treated with 50 μl growth medium containing test compounds and incubated for 20-24 hours. For YFP quenching assay, each well of the 96-well plate was washed 2 times with 200 μl of PBS, and it was filled with 50 μl of HEPES-buffered solution (140 mM NaCl, 5 mM KCl, 1 mM MgCl2, 1 mM CaCl2, 10 mM D-glucose, 10 mM HEPES; pH 7.4 with NaOH). After 10 minutes of incubation at 37° C., the 96-well plate was moved on the FLUOstar Omega Microplate Reader (BMG Labtech, Ortenberg, Germany) for a fluorescence assay. Each well was assayed individually for H723R-pendrin mediated I^− influx by recording fluorescence (495±15 nm excitation, 520±20 nm emission) every 400 ms for 1 second (baseline). Then, 50 μL of NaI-substituted HEPES-buffered solution (NaI replacing NaCl) was added using a liquid injector at 1 second and YFP fluorescence was recorded every 400 ms for 10 seconds. The initial iodide influx rate was determined from the initial slope of fluorescence by nonlinear regression, after the infusion of iodide.
It is indicated as EC50 with the following key: A=EC50 less than 5 uM; B=EC50 greater than 5 uM, but less than 10 uM; C=EC50 greater than 10 uM.

Row | SMILES | EC50
1 | NC1=C(c2cc(-c3ccc(O)c(O)c3)ncn2)C(=O)CN1c1ccccc1Cl [Compound 72] | > 10 µM
2 | NC1=C(c2nccc(-c3ccc(O)c(O)c3)n2)C(=O)CN1c1ccccc1F [Compound 74] | > 10 µM
3 | COc1ccc(-c2cccc(C3=C(N)N(c4ccccc4Cl)CC3=O)n2)cc1OC [Compound 75] | > 10 µM
4 | NC1=C(c2cccc(-c3ccc(O)c(O)c3)n2)C(=O)CN1c1ccccc1Cl [Compound 76] | > 10 µM
5 | COc1ccc(-c2nccc(C3=C(N)N(CC4CCCC4)CC3=O)n2)cc1OC [Compound 77] | > 10 µM
6 | NC1=C(c2cncc(-c3ccc(O)c(O)c3)n2)C(=O)CN1c1ccccc1F [Compound 78] | < 5 µM
7 | NC1=C(c2ccnc(-c3ccc(O)c(O)c3)n2)C(=O)CN1CC1CCCC1 [Compound 79] | < 5 µM
8 | COc1ccc(-c2cccc(C3=C(N)N(CC4CCCC4)CC3=O)n2)cc1OC [Compound 80] | > 10 µM
9 | NC1=C(c2cccc(-c3ccc(O)c(O)c3)n2)C(=O)CN1CC1CCCC1 [Compound 81] | < 5 µM
10 | COc1ccc(-c2ccnc(C3=C(N)N(CC4CCNC4)CC3=O)n2)cc1OC (centres unmarked) [Compound 82] | > 10 µM
11 | NC1=C(c2nccc(-c3ccc(O)c(O)c3)n2)C(=O)CN1CC1CCNC1 (centres unmarked) [Compound 83] | > 10 µM
12 | COc1ccc(-c2ccnc(C3=C(N)N(CC4CCOC4)CC3=O)n2)cc1OC (centres unmarked) [Compound 84] | > 10 µM
13 | COc1ccc(-c2cccc(C3=C(N)N(CC4CCNC4)CC3=O)n2)cc1OC (centres unmarked) [Compound 85] | > 10 µM
14 | NC1=C(c2cccc(-c3ccc(O)c(O)c3)n2)C(=O)CN1CC1CCNC1 (centres unmarked) [Compound 86] | > 10 µM
15 | COc1ccc(-c2cccc(C3=C(N)N(CC4CCOC4)CC3=O)n2)cc1OC (centres unmarked) [Compound 87] | 5 to 10 µM
16 | COc1ccc(-c2cncc(C3=C(N)N(CCC(F)(F)F)CC3=O)c2)cc1OC [Compound 88] | > 10 µM
17 | NC1=C(c2cncc(-c3ccc(O)c(OC4CNC4)c3)n2)C(=O)CN1CC1CCCC1 [Compound 89] | > 10 µM
18 | COc1cc(-c2cncc(C3=C(N)N(CC4CCNC4)CC3=O)c2)ccc1O (centres unmarked) [Compound 90] | > 10 µM
19 | COc1cc(-c2cncc(C3=C(N)N(CC4CCOC4)CC3=O)c2)ccc1O (centres unmarked) [Compound 91] | > 10 µM
20 | NC1=C(c2cccc(-c3ccc(O)c(O)c3)n2)C(=O)CN1c1ccccc1F [Compound 92] | 5 to 10 µM
21 | COc1ccc(-c2cccc(C3=C(N)N(CCC(F)(F)F)CC3=O)n2)cc1OC [Compound 93] | > 10 µM
22 | NC1=C(c2cccc(-c3ccc(O)c(O)c3)n2)C(=O)CN1CCC(F)(F)F [Compound 94] | > 10 µM
23 | NC1=C(c2cncc(-c3ccc(O)c(O)c3)c2)C(=O)CN1CCC(F)(F)F [Compound 95] | > 10 µM
24 | COc1ccc(-c2ccnc(C3=C(N)N(CCC(F)(F)F)CC3=O)n2)cc1OC [Compound 96] | > 10 µM

Row | SMILES | EC50
25 | NC1=C(c2nccc(-c3ccc(O)c(O)c3)n2)C(=O)CN1CCC(F)(F)F [Compound 97] | > 10 µM
26 | COc1ccc(-c2nccc(C3=C(N)N(c4ccccc4Cl)CC3=O)n2)cc1OC [Compound 98] | > 10 µM
27 | COCCOc1cc(-c2cncc(C3=C(N)N(CC4CCCC4)CC3=O)n2)ccc1O [Compound 99] | < 5 µM
28 | COc1ccc(-c2cc(C3=C(N)N(c4ccccc4F)CC3=O)ccn2)cc1OC [Compound 100] | > 10 µM
29 | NC1=C(c2ccnc(-c3ccc(O)c(O)c3)c2)C(=O)CN1c1ccccc1F [Compound 101] | > 10 µM
30 | NC1=C(c2ccnc(-c3ccc(O)c(O)c3)c2)C(=O)CN1c1ccccc1Cl [Compound 102] | > 10 µM
31 | NC1=C(c2cncc(-c3ccc(O)c(OCCO)c3)n2)C(=O)CN1CC1CCCC1 [Compound 103] | > 10 µM
32 | NC1=C(c2cncc(-c3ccc(O)c(O)c3)n2)C(=O)CN1CC1CC(F)(F)C1 [Compound 104] | 5 to 10 µM
33 | COc1ccc(-c2cc(C3=C(N)N(c4ccccc4Cl)CC3=O)ccn2)cc1OC [Compound 106] | > 10 µM
34 | CNCCOc1cc(-c2cncc(C3=C(N)N(CC4CCCC4)CC3=O)n2)ccc1O [Compound 107] | < 5 µM
35 | COc1ccc(-c2cc(C3=C(N)N(CC4CCCC4)CC3=O)ccn2)cc1OC [Compound 108] | > 10 µM
36 | NC1=C(c2ccnc(-c3ccc(O)c(O)c3)c2)C(=O)CN1CC1CCCC1 [Compound 109] | > 10 µM
37 | COc1cc(-c2ccnc(C3=C(N)N(CC4CCCC4)CC3=O)n2)ccc1O [Compound 110] | < 5 µM
38 | NC1=C(c2cncc(-c3ccc(O)c(OC4CC(O)C4)c3)n2)C(=O)CN1CC1CCCC1 (centres unmarked) [Compound 111] | < 5 µM
39 | NC1=C(c2cncc(-c3ccc(O)c(OC4COC4)c3)n2)C(=O)CN1CC1CCC1 [Compound 112] | 5 to 10 µM
40 | NC1=C(c2cncc(-c3ccc(O)c(OC4CC(N)C4)c3)n2)C(=O)CN1CC1CCCC1 (centres unmarked) [Compound 113] | > 10 µM
41 | NC1=C(c2ccnc(-c3ccc(O)c(O)c3)n2)C(=O)CN1c1ccccc1Cl [Compound 114] | < 5 µM
42 | COCOc1ccc(-c2cncc(C3=C(N)N(C4CCCC4)CC3=O)n2)cc1OC1COC1 [Compound 115] | > 10 µM
43 | COCOc1ccc(-c2cncc(C3=C(N)N(CC4CCCC4)CC3=O)n2)cc1OC [Compound 116] | < 5 µM
44 | NC1=C(c2cncc(-c3ccc(O)c(OC4COC4)c3)n2)C(=O)CN1C1CCCC1 [Compound 117] | 5 to 10 µM
45 | COC1CC(Oc2cc(-c3cncc(C4=C(N)N(CC5CCCC5)CC4=O)n3)ccc2O)C1 (centres unmarked) [Compound 118] | > 10 µM
46 | NC1=C(c2cncc(-c3ccc(O)c(O)c3)n2)C(=O)CN1c1cccnc1Cl [Compound 119] | > 10 µM
47 | NC1=C(c2cncc(-c3ccc(O)c(O)c3)n2)C(=O)CN1c1ncncc1Cl [Compound 120] | > 10 µM
